Laboratory results from publication PMC8611036, “An integrated method for optimized identification of effective natural inhibitors against SARS-CoV-2 3CLpro” (Scientific Reports, 2021).
Non-standard residues stand in square brackets, D forms with d. Residues, ends and D or L forms follow the SMILES beside them. ξ: configuration not given here. *: point of attachment. ξF = NC(Cc1ccccc1)C(=O)O; Cbz = O=C(OCc1ccccc1)*; CF3 = FC(F)(F)*

How the values were obtained:
SARS-CoV-2 3CLpro = SARS-CoV-2 3CLpro (Severe acute respiratory syndrome coronavirus 2, UniProt P0DTD1); conditions: SARS-CoV pIC50 multiplied by similarity index (SI), training set compounds
SARS-CoV 3CLpro [1] = conditions: SARS-CoV 3CLpro inhibitors (training set), ref: per compound, cited from earlier work; for pIC50: from literature IC50; for IC50: literature values
SARS-CoV 3CLpro [2] = type: biochemical; conditions: activity class by pIC50 threshold 6

Row | SMILES | SI*pIC50 (SARS-CoV-2 3CLpro) | pIC50 (SARS-CoV 3CLpro [1]) | IC50 (SARS-CoV 3CLpro [1]) [µM] | Inact.(<6)/Act.(>=6) (SARS-CoV 3CLpro [2])
1 | O=c1cc(-c2ccc(O)c(O)c2)oc2cc(O)cc(O)c12 [CMP153] | 4.851 | 4.699 | 20 | Inact. (Inact.(<6))
2 | CCC(C)c1ccc(N(C(=O)c2ccco2)C(C(=O)NC2CCCC2)c2cccnc2)cc1 (stereo not drawn) [CMP144] | 5.809 | 5.658 | 2.2 | Inact. (Inact.(<6))
3 | CC(C)c1cc2c(cc1O)[C@@]1(C)CCC[C@@](C)(CO)[C@@H]1CC2 [CMP173] | 3.808 | 3.656 | 221 | Inact. (Inact.(<6))
4 | CSc1[nH]nc(NC(=O)c2cccs2)c1S(=O)(=O)c1ccccc1 [CMP177] | 4.976 | 4.824 | 15 | Inact. (Inact.(<6))
5 | O=C(CSc1ncnc2c1sc1nc(N3CCOCC3)c3c(c12)CCCC3)NCc1ccco1 [CMP134] | 4.194 | 4.0423 | 90.7 | Inact. (Inact.(<6))
6 | CC1=C(O)C(=O)C=C2C1=CC=C1[C@@]2(C)CC[C@@]2(C)[C@@H]3C[C@@H](C)C(=O)C[C@]3(C)CC[C@]12C [CMP126] | 5.156 | 5.004 | 9.91 | Inact. (Inact.(<6))
7 | CN(C)c1ccc(C(=O)N[C@@H](Cc2ccccc2)C(=O)Nc2ccc([N+](=O)[O-])cc2Cl)cc1 [CMP119] | 7.374 | 7.222 | 0.06 | Act. (Act.(>=6))
8 | Clc1ccc(C2C(n3ccnc3)C(c3ccc(Br)cc3)=NN2c2ccc(Cl)c(Cl)c2)cc1 (stereo not drawn) [CMP112] | 5.754 | 5.602 | 2.5 | Inact. (Inact.(<6))
9 | Nc1ncc(S(=O)(=O)c2ccc(Cl)cc2)c(N)n1 [CMP141] | 5.374 | 5.222 | 6 | Inact. (Inact.(<6))
10 | O=c1cc(-c2ccc(O)c(-c3c(O)cc(O)c4c(=O)cc(-c5ccc(O)cc5)oc34)c2)oc2cc(O)cc(O)c12 [CMP154] | 5.233 | 5.081 | 8.3 | Inact. (Inact.(<6))
11 | Nc1nc(CSc2nnc(-c3cccc4ccccc34)n2-c2ccccc2)cs1 [CMP135] | 4.386 | 4.234 | 58.3 | Inact. (Inact.(<6))
12 | CC1CCN(S(=O)(=O)c2ccc3c(c2)C(=O)C(=O)N3)CC1 [CMP146] | 6.08 | 5.928 | 1.18 | Inact. (Inact.(<6))
13 | O=C1C(=O)N(Cc2ccccc2)c2ccc(S(=O)(=O)N3CCCCC3)cc21 [CMP176] | 5.006 | 4.854 | 14 | Inact. (Inact.(<6))
14 | O=C(Oc1cncc(Cl)c1)c1cc2ccccc2s1 [CMP140] | 7.152 | 7 | 0.1 | Act. (Act.(>=6))
15 | CC(=O)c1ccccc1S(=O)(=O)c1ccccc1C(=O)O [CMP147] | 4.948 | 4.796 | 16 | Inact. (Inact.(<6))
16 | CC(C)C[C@H](NC(=O)[C@@H](NC(=O)[C@H](C)NC(=O)OCc1ccccc1)C(C)C)C(=O)NC(Cc1ccccc1)C(=O)C(F)(F)F (stereo partly drawn) [CMP174] (Cbz-AVL[ξF]-CF3) | 5.152 | 5 | 10 | Inact. (Inact.(<6))
17 | O=C1C(=O)N(Cc2ccc(C(=O)N3CCCCC3)s2)c2ccc(I)cc21 [CMP100] | 4.909 | 4.757 | 17.5 | Inact. (Inact.(<6))
18 | O=C(Oc1cncc(Cl)c1)c1cccc2ccccc12 [CMP168] | 7.073 | 6.921 | 0.12 | Act. (Act.(>=6))

Row | SMILES | SI*pIC50 (SARS-CoV-2 3CLpro) | pIC50 (SARS-CoV 3CLpro [1]) | IC50 (SARS-CoV 3CLpro [1]) [µM] | Inact.(<6)/Act.(>=6) (SARS-CoV 3CLpro [2])
19 | CC(C)c1cc2c(cc1O)[C@@]1(C)CCCC(C)(C)[C@@H]1CC2 [CMP132] | 4.457 | 4.305 | 49.6 | Inact. (Inact.(<6))
20 | COc1cc(O)c2c(=O)cc(-c3ccc(OC)c(-c4c(O)cc(O)c5c(=O)cc(-c6ccc(O)cc6)oc45)c3)oc2c1 [CMP150] | 4.6468 | 4.495 | 32 | Inact. (Inact.(<6))
21 | O=C(Oc1cncc(Cl)c1)c1cc2ccccc2oc1=O [CMP162] | 7.11 | 6.959 | 0.11 | Act. (Act.(>=6))
22 | CC(C)c1ccc(N(C(=O)c2ccco2)C(C(=O)NC(C)(C)C)c2cccnc2)cc1 (stereo not drawn) [CMP182] | 4.7028 | 4.551 | 28.1 | Inact. (Inact.(<6))
23 | COc1cc(C=NNC(=O)C(=Cc2ccccc2)NC(=O)c2ccccc2)cc(OC)c1O [CMP123] | 4.265 | 4.113 | 77.1 | Inact. (Inact.(<6))
24 | CC(C)C1=CC2=CC[C@@H]3[C@](C)(CCC[C@@]3(C)C(=O)O)[C@H]2CC1 [CMP124] | 3.875 | 3.723 | 189 | Inact. (Inact.(<6))
25 | CC1(C)CC(=O)c2c(NCc3ccco3)sc(C#N)c2C1 [CMP142] | 4.948 | 4.796 | 16 | Inact. (Inact.(<6))
26 | CC1=C(C(=O)OCCc2ccccc2)C(c2ccccc2[N+](=O)[O-])C2=C(CCCC2=O)N1 (stereo not drawn) [CMP102] | 5.754 | 5.602 | 2.5 | Inact. (Inact.(<6))
27 | Cc1oc(C(C)(C)C)cc1-c1cc(NS(=O)(=O)c2cccs2)[nH]n1 [CMP136] | 5.152 | 5 | 10 | Inact. (Inact.(<6))
28 | COC(=O)[C@]1(C)CCC[C@]2(C)c3ccc(C(C)C)cc3CC[C@@H]12 [CMP125] | 3.836 | 3.684 | 207 | Inact. (Inact.(<6))
29 | O=C(Oc1cncc(Cl)c1)c1cscn1 [CMP166] | 6.72 | 6.569 | 0.27 | Act. (Act.(>=6))
30 | Cc1coc2c1C(=O)C(=O)c1c-2ccc2c1CCCC2(C)CO (stereo not drawn) [CMP131] | 5.122 | 4.971 | 10.7 | Inact. (Inact.(<6))
31 | O=C1C(=O)N(c2cccc3ccccc23)c2ccc(I)cc21 [CMP117] | 6.11 | 5.959 | 1.1 | Inact. (Inact.(<6))
32 | O=C(O)c1ccc(S(=O)(=O)c2cc(Br)c(O)c(Br)c2)cc1 [CMP138] | 4.948 | 4.796 | 16 | Inact. (Inact.(<6))
33 | CCn1c(NCc2ccc(N3N=C(c4ccccc4)CC3c3ccccc3)cc2)nc2ccccc21 (stereo not drawn) [CMP114] | 5.228 | 5.076 | 8.4 | Inact. (Inact.(<6))
34 | CCOC(=O)C(C#N)=CNc1ccc(S(=O)(=O)c2ccc(NC=C(C#N)C(=O)OCC)cc2)cc1 [CMP122] | 4.948 | 4.796 | 16 | Inact. (Inact.(<6))
35 | CN1C(=O)C(=O)c2cc(S(=O)(=O)N3CCOCC3)ccc21 [CMP149] | 5.156 | 5.004 | 9.91 | Inact. (Inact.(<6))
36 | CCCn1c(NCc2ccc(N3N=C(c4ccccc4)CC3c3ccccc3)cc2)nc2ccccc21 (stereo not drawn) [CMP115] | 5.249 | 5.097 | 8 | Inact. (Inact.(<6))
